Like-named read-outs stand apart in the source and are kept apart here.
Assays:
[1] = target: T1, Plasmodium falciparum calcium-dependent protein kinase 4 (CDPK4) (Plasmodium falciparum, UniProt Q8IBS5); test: CDPK4 Kinase-Glo ATP-consumption screen and dose-response; type: biochemical; details: hits below 1 uM
T1 construct: 6-Histidine (N); made in house
T1 sequence (Q8IBS5 1-528): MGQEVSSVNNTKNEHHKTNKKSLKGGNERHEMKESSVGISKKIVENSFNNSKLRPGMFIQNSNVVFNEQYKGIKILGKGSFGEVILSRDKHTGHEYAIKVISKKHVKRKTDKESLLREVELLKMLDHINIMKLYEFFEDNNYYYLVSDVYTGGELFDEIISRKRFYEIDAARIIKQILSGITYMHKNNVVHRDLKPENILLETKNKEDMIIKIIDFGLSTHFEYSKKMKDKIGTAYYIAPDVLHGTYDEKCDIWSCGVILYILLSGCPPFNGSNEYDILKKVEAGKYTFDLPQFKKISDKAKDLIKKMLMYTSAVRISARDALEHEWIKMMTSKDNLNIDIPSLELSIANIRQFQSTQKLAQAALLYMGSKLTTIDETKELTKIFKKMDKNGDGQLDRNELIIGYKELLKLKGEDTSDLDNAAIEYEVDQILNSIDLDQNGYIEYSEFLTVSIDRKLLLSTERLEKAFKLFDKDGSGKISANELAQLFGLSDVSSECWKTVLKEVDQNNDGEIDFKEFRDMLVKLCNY
Method: Biochemical assays were performed in white 384-well plates (Nunc). Liquid transfers were done manually with 8-channel pipets. Compounds were initially tested in a single-point screen (final concentration 1 μM). […] The catalytic activity of each kinase was considered proportional to ATP consumed, as determined from measurements of residual [ATP] with the luciferase-based reagent Kinase-Glo (Promega) following incubation. Luminescence (proportional to residual [ATP]) was measured on the plate readers FLx800 (BioTek Instruments, Winooski, VT, USA) and MicroBeta^2 (PerkinElmer, Waltham, MA, USA). Incubation times were chosen to ensure near-complete ATP depletion in the absence of inhibition, thus maximizing the difference in signal between inhibited and uninhibited wells.
40 μM Syntide-2 was used as a substrate; BKI-1 [14] was used as a control inhibitor, while reaction mixtures lacking Syntide-2 were included as an additional negative control. Incubation time was 90 minutes. Reactions were terminated by adding excess EGTA (5 mM), which sequesters Ca^2+ and halts calcium-dependent kinase activity.

[2] = target: T2, PKG (Plasmodium falciparum, UniProt Q8I719); test: PKG IC50 (supplementary data file); type: biochemical
Description: (§1) Supplement pone.0149996.s003.xls, sheet "combined_1_sorted"

[3] = tested on: HepG2 cells; details: HepG2 cells, cited from earlier work
[4] = tested on: P. falciparum 3D7 cells; details: P. falciparum 3D7, cited from earlier work
[5] = tested on: P. falciparum DD2; design: method as in ChEMBL; details: ref ChEMBL; cited from earlier work
[6] = tested on: 3D7 PFLDH; design: method as in ChEMBL; details: ref ChEMBL; cited from earlier work
[7] = target: T3, Plasmodium falciparum calcium-dependent protein kinase 1 (CDPK1) (Plasmodium falciparum, UniProt P62344); test: CDPK1 Kinase-Glo ATP-consumption screen and dose-response; type: biochemical; details: hits below 1 uM; read-out: CDPK1 IC50
T3 construct: 6-Histidine (N); made in house
Summary of the method: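 ATP consumption by recombinant P. falciparum CDPK4 or CDPK1 measured as residual ATP by Kinase-Glo luminescence, with 40 μM Syntide-2 substrate and 90 min incubation stopped with 5 mM EGTA. Single-point screen at 1 μM final, followed by dose-response; no-substrate wells as negative control.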

[8] = target: T2, PKG; test: PKG IC50 (supplementary data file of hits); type: biochemical
Description: as §1

[9] = tested on: DD2; design: method as in F.J. Gamo et al., Nature 2010; details: P. falciparum Dd2; downloaded from ChEMBL ref F.J. Gamo et al., Nature 2010; cited from earlier work
[10] = tested on: 3D7 PFLDH; design: method as in F.J. Gamo et al., Nature 2010; details: downloaded from ChEMBL ref F.J. Gamo et al., Nature 2010; cited from earlier work
[11] = downloaded from ChEMBL ref F.J. Gamo et al., Nature 2010

T3 sequence (P62344 whole entry): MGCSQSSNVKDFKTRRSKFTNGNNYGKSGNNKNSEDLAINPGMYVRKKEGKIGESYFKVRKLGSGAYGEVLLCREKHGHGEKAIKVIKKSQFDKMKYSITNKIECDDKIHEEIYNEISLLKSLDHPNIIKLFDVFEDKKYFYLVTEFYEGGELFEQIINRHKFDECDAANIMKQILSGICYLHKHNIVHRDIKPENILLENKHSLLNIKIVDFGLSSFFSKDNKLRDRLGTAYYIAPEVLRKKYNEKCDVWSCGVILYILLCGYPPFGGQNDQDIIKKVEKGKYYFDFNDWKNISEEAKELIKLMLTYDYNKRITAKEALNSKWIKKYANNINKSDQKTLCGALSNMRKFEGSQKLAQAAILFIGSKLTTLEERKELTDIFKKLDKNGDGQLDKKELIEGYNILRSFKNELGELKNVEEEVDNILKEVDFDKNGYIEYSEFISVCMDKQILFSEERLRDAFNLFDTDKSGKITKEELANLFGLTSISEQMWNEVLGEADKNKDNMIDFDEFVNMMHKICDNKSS
T2 sequence (Q8I719 whole entry): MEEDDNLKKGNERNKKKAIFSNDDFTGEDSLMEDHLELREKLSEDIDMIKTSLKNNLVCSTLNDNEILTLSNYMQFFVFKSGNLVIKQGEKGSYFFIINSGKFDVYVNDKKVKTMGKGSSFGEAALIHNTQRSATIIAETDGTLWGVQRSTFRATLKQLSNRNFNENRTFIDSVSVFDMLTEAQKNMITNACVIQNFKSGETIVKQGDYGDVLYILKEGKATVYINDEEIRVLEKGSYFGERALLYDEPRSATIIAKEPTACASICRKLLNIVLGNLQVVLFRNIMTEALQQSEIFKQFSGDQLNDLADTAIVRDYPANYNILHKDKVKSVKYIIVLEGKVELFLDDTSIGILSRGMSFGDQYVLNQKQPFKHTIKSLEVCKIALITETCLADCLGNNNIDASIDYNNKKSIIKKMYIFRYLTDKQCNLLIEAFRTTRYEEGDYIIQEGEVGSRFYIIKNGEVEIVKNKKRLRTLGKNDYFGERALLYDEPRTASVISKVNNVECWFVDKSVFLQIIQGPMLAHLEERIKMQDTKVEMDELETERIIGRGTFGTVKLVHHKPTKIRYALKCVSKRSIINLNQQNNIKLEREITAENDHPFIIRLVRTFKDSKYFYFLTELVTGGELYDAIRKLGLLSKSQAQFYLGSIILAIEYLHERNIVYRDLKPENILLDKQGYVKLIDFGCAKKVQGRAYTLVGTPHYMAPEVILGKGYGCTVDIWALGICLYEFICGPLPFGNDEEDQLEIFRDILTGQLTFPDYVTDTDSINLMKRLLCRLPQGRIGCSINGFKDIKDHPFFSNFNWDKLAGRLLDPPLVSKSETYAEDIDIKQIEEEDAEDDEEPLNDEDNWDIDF

Row | Structure (SMILES) | IC50 [1] | IC50 [2] | PCT_INHIB_HEPG2 ([3]; ref ChEMBL) | PCT_IHB_3D7 ([4]; ref ChEMBL) | pXC50_3D7 ([4]; ref ChEMBL) | PCT_INHB_DD2 [5] | PCT_INHIB_3D7_PFLDH [6] | IC50 [7] | IC50 [8] | PCT_INHIB_HEPG2 [3, 11] | PCT_IHB_3D7 [4, 11] | pXC50_3D7 [4, 11] | PCT_INHB_DD2 [9] | PCT_INHIB_3D7_PFLDH [10]
1 | N#Cc1ccc(C(=O)Nc2cc(-c3cccc(O)c3)cc3[nH]ncc23)cc1 [TCMDC-134118] | 478 nM | > 10000 nM | 15 | 90 | 5.863 | 79 | 0 |  |  |  |  |  |  | 
2 | O=C(Nc1cccc(-c2nn3ncccc3c2-c2ccnc(Nc3ccccc3)n2)c1)c1c(F)cccc1F [TCMDC-134631] | 352 nM |  |  |  |  |  |  | 39 nM | > 10000 nM | 51 | 98 | 6.139 | 96 | 0
3 | O=C(Nc1ccccc1)Nc1cccc(-c2nn3c(OCCN4CCCC4)cccc3c2-c2ccncc2)c1 [TCMDC-135539] | 775 nM |  |  |  |  |  |  |  | > 10000 nM | 30 | 100 | 6.394 | 98 | 4
4 | O=C(Nc1cccc(-c2nn3ncccc3c2-c2ccnc(Nc3cccc(-c4cnco4)c3)n2)c1)c1c(F)cccc1F [TCMDC-135550] | 145 nM |  |  |  |  |  |  | 23 nM | > 10000 nM | 96 | 97 | 6.779 | 98 | 2
5 | Cn1cccc1C(=O)Nc1cccc(-c2nn3ccccc3c2-c2ccnc(Nc3ccc4c(c3)OCCO4)n2)c1 [TCMDC-135663] | 191 nM |  |  |  |  |  |  |  | > 10000 nM | 12 | 95 | 5.869 | 27 | 4
6 | O=C(NCC(c1ccc(C(F)(F)F)cc1)N1CCCC1)c1cc(-c2ccncc2)c(-c2cccc(O)c2)o1.O=C(O)C(F)(F)F (centres unmarked) [TCMDC-135665] | 178 nM |  |  |  |  |  |  | 283 nM | 7640 nM | 9 | 95 | 5.973 | 53 | 0
7 | COc1cc(Nc2nccc(-c3c(-c4cccc(NC(=O)c5c(F)cccc5F)c4)nn4ccccc34)n2)cc(OC)c1OC [TCMDC-135668] | 77 nM |  |  |  |  |  |  | 60 nM | > 10000 nM | 74 | 98 | 7.112 | 98 | 4
8 | CCS(=O)(=O)c1ccc(OC)c(Nc2nccc(-c3c(-c4cccc(NC(=O)c5c(F)cccc5F)c4)nn4ncccc34)n2)c1 [TCMDC-135682] | 201 nM |  |  |  |  |  |  |  | > 10000 nM | 27 | 87 | 5.986 | 88 | 0
9 | COc1cc(Nc2nccc(-c3c(-c4cccc(NC(=O)c5c(F)cccc5F)c4)nn4ncccc34)n2)cc(OC)c1OC [TCMDC-135684] | 45 nM |  |  |  |  |  |  |  | > 10000 nM | 96 | 98 | 7.4867 | 97 | 1
10 | O=C(Nc1cccc(-c2nn3ccccc3c2-c2ccnc(Nc3cccc(-c4cnco4)c3)n2)c1)C1CCCCC1 [TCMDC-135769] | 612 nM |  |  |  |  |  |  | 164 nM | > 10000 nM | 71 | 95 | 6.584 | 99 | 0
11 | O=C(Nc1cccc(-c2nn3ccccc3c2-c2ccnc(Nc3ccc(C(=O)N4CCOCC4)cc3)n2)c1)c1c(F)cccc1F [TCMDC-135910] | 311 nM |  |  |  |  |  |  | 92 nM | > 10000 nM | 72 | 99 | 6.417 | 97 | 4
12 | CCN(CC)CCNC(=O)c1ccc(N/C=C2\C(=O)Nc3ccc(S(=O)(=O)Cc4c(Cl)cccc4Cl)cc32)cc1 [TCMDC-135945] | 73 nM | > 10000 nM | 25 | 100 | 6.0758 | 56 | 3 |  |  |  |  |  |  | 
13 | NS(=O)(=O)c1cccc(N/C=C2\C(=O)Nc3ccc(S(=O)(=O)Cc4c(Cl)cccc4Cl)cc32)c1 [TCMDC-135947] | 116 nM | > 10000 nM | 1 | 92 | 6.143 | 99 | 4 |  |  |  |  |  |  | 
14 | Cc1csc(-c2ncc(OC[C@@H](N)Cc3ccccc3)cc2-c2ccc3[nH]nc(C)c3c2)c1.O=C(O)C(F)(F)F [TCMDC-136087] | 420 nM | > 10000 nM | 48 | 98 | 6.078 | 35 | 4 | 44 nM |  |  |  |  |  | 
15 | Cc1n[nH]c2ccc(-c3cc(OC[C@@H](N)Cc4ccccc4)cnc3-c3cc4ccccc4s3)cc12.O=C(O)C(F)(F)F [TCMDC-136352] | 563 nM | > 10000 nM | 41 | 99 | 6.092 | 68 | 0 |  |  |  |  |  |  | 
16 | CC(C)(CN)c1nc(-c2ccc(Br)c(O)c2)c(-c2ccncc2)[nH]1.Cl [TCMDC-140680] |  |  |  |  |  |  |  | 19 nM | 242 nM | 31 | 96 | 6.015 | 97 | 0

From PMC4774911, “Biochemical Screening of Five Protein Kinases from Plasmodium falciparum against 14,000 Cell-Active Compounds” (PLoS ONE, 2016)
